# Experimental data published in patent publication US7217702B2, “Selective antagonists of A2A adenosine receptors” (Adenosine Therapeutics, LLC, priority 2004, dated 2007).
# Molecular target: A2A adenosine receptor (Homo sapiens, UniProt P29274)
# Test: Human Ki of the compound tables
# Assay type: binding
# Details: receptor subtype not given
# A2A adenosine receptor, sequence (P29274 whole entry): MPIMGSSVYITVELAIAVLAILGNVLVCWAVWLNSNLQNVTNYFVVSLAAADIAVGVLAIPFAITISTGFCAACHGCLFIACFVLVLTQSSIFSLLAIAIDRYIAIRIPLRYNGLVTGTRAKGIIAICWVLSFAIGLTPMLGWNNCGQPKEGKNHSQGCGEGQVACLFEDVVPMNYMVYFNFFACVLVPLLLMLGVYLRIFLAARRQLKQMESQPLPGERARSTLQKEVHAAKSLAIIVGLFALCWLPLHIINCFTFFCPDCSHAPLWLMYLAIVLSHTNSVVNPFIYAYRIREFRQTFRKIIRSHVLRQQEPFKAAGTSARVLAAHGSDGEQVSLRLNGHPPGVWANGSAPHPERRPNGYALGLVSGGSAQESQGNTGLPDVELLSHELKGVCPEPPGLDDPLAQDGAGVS
row,SMILES,Ki [µM]
1,"CCC(CC)Nc1nc(C#C[C@]2(O)CCC[C@@H](C)C2)nc2c1ncn2CC1CC1 [Compound 14, 9-Cyclopropylmethyl-2-{2-[1(S)-hydroxy-3(R)-methyl-1-cyclohexyl]ethyn-1-yl}-N6-(3-pentyl)adenine]",< 0.1
2,"CC(C)Cn1cnc2c(N)nc(C#CC3(O)C4CC5CC(C4)CC3C5)nc21 (centres unmarked) [Compound 44, 2-{2-[Hydroxy-adamantan-2-yl]ethyn-1-yl}-9-isobutyl-adenine]",< 0.5
3,"Nc1nc(C#CC2(O)C3CC4CC(C3)CC2C4)nc2c1ncn2CC1CCCC1 (centres unmarked) [Compound 47, 9-Cyclopentylmethyl-2-{2-[hydroxy-adamantan-2-yl]ethyn-1-yl}adenine]",< 0.5
4,"Cn1cnc2c(N)nc(C#CC3(O)C4CC5CC(C4)CC3C5)nc21 (centres unmarked) [Compound 39, 2-{2-[Hydroxy-adamantan-2-yl]ethyn-1-yl}-9-methyladenine]",< 0.1
5,"C#CCn1cnc2c(NCc3cccc(OC)c3)nc(C#C[C@]3(O)CCC[C@@H](C)C3)nc21 [Compound 36, 2-{2-[1(S)-Hydroxy-3(R)-methyl-1-cyclohexyl]ethyn-1-yl}-N6-(3-methoxybenzyl)-9-(propargyl)adenine]",< 0.1
6,"CCC(CC)Nc1nc(C#C[C@]2(O)CCC[C@@H](C)C2)nc2c1ncn2CC(C)C [Compound 13, 9-Isobutyl-2-{2-[1(S)-hydroxy-3(R)-methyl-1-cyclohexyl]ethyn-1-yl}-N6-(3-pentyl)adenine]",< 0.5
7,"CCCCCCn1cnc2c(N)nc(C#CC3(O)C4CC5CC(C4)CC3C5)nc21 (centres unmarked) [Compound 42, 9-Hexyl-2-{2-[hydroxy-adamantan-2-yl]ethyn-1-yl}adenine]",< 1
8,"C[C@@H]1CCC[C@@](O)(C#Cc2nc(NCC(c3ccccc3)c3ccccc3)c3ncn(C)c3n2)C1 [Compound 34, N6-(2-Diphenylethyl)-2-{2-[1(S)-hydroxy-3(R)-methyl-1-cyclohexyl]ethyn-1-yl}-9-methyladenine]",< 0.5
9,"CCn1cnc2c(N)nc(C#CC3(O)C4CC5CC(C4)CC3C5)nc21 (centres unmarked) [Compound 40, 9-Ethyl-2-{2-[hydroxy-adamantan-2-yl]ethyn-1-yl}adenine]",< 0.1
10,"C[C@@H]1CCC[C@@](O)(C#Cc2nc(N)c3ncn(CC4CC4)c3n2)C1 [Compound 1, 9-Cyclopropylmethyl-2-{2-[1(S)-hydroxy-3(R)-methyl-1-cyclohexyl]ethyn-1-yl}adenine]",< 0.1
11,"C#CCCn1cnc2c(N)nc(C#CC3(O)C4CC5CC(C4)CC3C5)nc21 (centres unmarked) [Compound 62, 9-(But-3-ynyl)-2-{2-[hydroxy-adamantan-2-yl]ethyn-1-yl}adenine]",< 0.1
12,"CCC(CC)Nc1nc(C#C[C@]2(O)CCC[C@@H](C)C2)nc2c1ncn2CCO [Compound 19, 9-(2-Hydroxyethyl)-2-{2-[1(S)-hydroxy-3(R)-methyl-1-cyclohexyl]ethyn-1-yl}-N6-(3-pentyl)adenine]",< 0.1
13,"CCCn1cnc2c(N)nc(C#CC3(O)C4CC5CC(C4)CC3C5)nc21 (centres unmarked) [Compound 41, 2-{2-[Hydroxy-adamantan-2-yl]ethyn-1-yl}-9-propyladenine]",< 0.1
14,"C#CCn1cnc2c(N)nc(C#CC3(O)CC4CCC3C4)nc21 (single isomer, unassigned) [Compound 61, 2-{2-[Hydroxy-norbornan-2-yl]ethyn-1-yl}-9-propargyladenine]",< 0.1
15,"CCC(CC)Nc1nc(C#C[C@]2(O)CCC[C@@H](C)C2)nc2c1ncn2Cc1cccnc1 [Compound 28, 2-{2-[1(S)-Hydroxy-3(R)-methyl-1-cyclohexyl]ethyn-1-yl}-N6-(3-pentyl)-9-(pyridin-3-ylmethyl)adenine]",< 0.1
16,"CC[C@H](C)Nc1nc(C#C[C@]2(O)CCC[C@@H](C)C2)nc2c1ncn2Cc1c(C)noc1C [Compound 33, N6-[(s)-(+)-sec-Butyl]-9-(3,5-dimethyl-isoxazol-4-ylmethyl)-2-{2-[1(S)-hydroxy-3(R)-methyl-1-cyclohexyl]ethyn-1-yl}adenine]",< 0.1
17,"CCC(CC)Nc1nc(C#C[C@]2(O)CCC[C@@H](C)C2)nc2c1ncn2Cc1c(C)noc1C [Compound 30, 9-(3,5-Dimethyl-isoxazol-4-ylmethyl)-2-{2-[1(S)-hydroxy-3(R)-methyl-1-cyclohexyl]ethyn-1-yl}-N6-(3-pentyl)adenine]",< 0.1
18,C[C@@H]1CCC[C@@](O)(C#Cc2nc(N)c3ncn(CC#Cc4cccs4)c3n2)C1 [Compound 10],< 0.5
19,"Nc1nc(C#CC2(O)C3CC4CC(C3)CC2C4)nc2c1ncn2C1CCC1 (centres unmarked) [Compound 49, 9-Cyclobutyl-2-{2-[hydroxy-adamantan-2-yl]ethyn-1-yl}adenine]",< 0.1

row,SMILES,Ki [µM]
1,"CCOC(=O)Cn1cnc2c(NC(CC)CC)nc(C#C[C@]3(O)CCC[C@@H](C)C3)nc21 [Compound 25, 9-(Acetic acid ethyl ester)-2-{2-[1(S)-hydroxy-3(R)-methyl-1-cyclohexyl]ethyn-1-yl}-N6-(3-pentyl)adenine]",< 0.5
2,"Nc1nc(C#CC2(O)C3CC4CC(C3)CC2C4)nc2c1ncn2CC1CCC1 (centres unmarked) [Compound 46, 9-Cyclobutylmethyl-2-{2-[hydroxy-adamantan-2-yl]ethyn-1-yl}adenine]",< 0.1
3,"C#CCn1cnc2c(N[C@@H](C)CC)nc(C#C[C@]3(O)CCC[C@@H](C)C3)nc21 [Compound 32, N6-[(S)-(+)-sec-Butyl]-2-{2-[1(S)-hydroxy-3(R)-methyl-1-cyclohexyl]ethyn-1-yl}-9-propargyl-adenine]",< 0.1
4,"C#CCCCn1cnc2c(NC(CC)CC)nc(C#C[C@]3(O)CCC[C@@H](C)C3)nc21 [Compound 18, 2-{2-[1(S)-Hydroxy-3(R)-methyl-1-cyclohexyl]ethyn-1-yl}-N6-(3-pentyl)-9-(pent-4-yne)adenine]",< 0.1
5,"CCCn1cnc2c(NC(CC)CC)nc(C#C[C@]3(O)CCC[C@@H](C)C3)nc21 [Compound 12, 2-{2-[1(S)-Hydroxy-3(R)-methyl-1-cyclohexyl]ethyn-1-yl}-N6-(3-pentyl)-9-propyladenine]",< 0.1
6,"Nc1nc(C#CC2(O)C3CC4CC(C3)CC2C4)nc2c1ncn2CCO (centres unmarked) [Compound 52, 2-{2-[Hydroxy-adamantan-2-yl]ethyn-1-yl}-9-(2-hydroxyethyl)adenine]",< 0.5
7,"Cc1noc(C)c1Cn1cnc2c(N)nc(C#C[C@]3(O)CCC[C@@H](C)C3)nc21 [Compound 8, 9-(3,5-Dimethyl-isoxazol-4-ylmethyl)-2-{2-[1(S)-hydroxy-3(R)-methyl-1-cyclohexyl]ethyn-1-yl}adenine]",< 0.1
8,"CCC(CC)Nc1nc(C#C[C@]2(O)CCC[C@@H](C)C2)nc2c1ncn2CC1OCCO1 [Compound 22, 9-([1,3]-Dioxolan-2-ylmethyl)-2-{2-[1(S)-hydroxy-3(R)-methyl-1-cyclohexyl]ethyn-1-yl}-N6-(3-pentyl)adenine]",< 0.5
9,"CCC(CC)Nc1nc(C#C[C@]2(O)CCC[C@@H](C)C2)nc2c1ncn2C1CCCC1 [Compound 15, 9-Cyclopentyl-2-{2-[1(S)-hydroxy-3(R)-methyl-1-cyclohexyl]ethyn-1-yl}-N6-(3-pentyl)adenine]",< 0.1
10,"C=CCn1cnc2c(NC(CC)CC)nc(C#C[C@]3(O)CCC[C@@H](C)C3)nc21 [Compound 16, 9-Allyl-2-{2-[1(S)-hydroxy-3(R)-methyl-1-cyclohexyl]ethyn-1-yl}-N6-(3-pentyl)adenine]",< 0.1
11,"C#CCn1cnc2c(N)nc(C#CCC3CCN(C(=O)OC)CC3)nc21 [Compound 63, 2-{3-[1-(Methoxycarbanoyl)piperidin-4-yl]propyn-1-yl}-9-propargyladenine]",< 0.1
12,"CCC(CC)Nc1nc(C#C[C@]2(O)CCC[C@@H](C)C2)nc2c1ncn2Cc1ccccc1 [Compound 27, 9-Benzyl-2-{2-[1(S)-hydroxy-3(R)-methyl-1-cyclohexyl]ethyn-1-yl}-N6-(3-pentyl)adenine]",< 0.1
13,"C#CCn1cnc2c(NCc3ccccn3)nc(C#C[C@]3(O)CCC[C@@H](C)C3)nc21 [Compound 37, 2-{2-[1(S)-Hydroxy-3(R)-methyl-1-cyclohexyl]ethyn-1-yl}-9-(propargyl)-N6-(pyridin-2-ylmethyl)adenine]",< 0.1
14,"C#CCn1cnc2c(N)nc(C#CC3(O)CC4CCC3C4)nc21 (single isomer, unassigned) [Compound 60, 2-{2-[Hydroxy-norbornan-2-yl]ethyn-1-yl}-9-propargyladenine]",< 0.1
15,"CCC(CC)Nc1nc(C#C[C@]2(O)CCC[C@@H](C)C2)nc2c1ncn2CCCO [Compound 20, 2-{2-[1(S)-Hydroxy-3(R)-methyl-1-cyclohexyl]ethyn-1-yl}-9-(3-hydroxypropyl)-N6-(3-pentyl)adenine]",< 0.5
16,Nc1nc(C#CC2(O)C3CC4CC(C3)CC2C4)nc2c1ncn2CCCO (centres unmarked) [Compound 53],< 0.5
17,"C#CCn1cnc2c(N[C@@H](C)c3cccc4ccccc34)nc(C#C[C@]3(O)CCC[C@@H](C)C3)nc21 [Compound 35, 2-{2-[1(S)-Hydroxy-3(R)-methyl-1-cyclohexyl]ethyn-1-yl}-N6-[(s)-(−)-alpha-napthalen-1-yl-ethyl]-9-(propargyl)adenine]",< 0.5
18,"Nc1nc(C#CC2(O)C3CC4CC(C3)CC2C4)nc2c1ncn2CC1CC1 (centres unmarked) [Compound 45, 9-Cyclopropylmethyl-2-{2-[hydroxy-adamantan-2-yl]ethyn-1-yl}adenine]",< 0.1
19,"C[C@@H]1CCC[C@@](O)(C#Cc2nc(N)c3ncn(CC#N)c3n2)C1 [Compound 4, 9-Acetonitrile-2-{2-[1(S)-hydroxy-3(R)-methyl-1-cyclohexyl]ethyn-1-yl}adenine]",< 0.1
